Assay [1] deals with Eotaxin-3 (CCL26) release in human whole blood stimulated with IL-4. Put plainly: Human whole blood eotaxin-3 assay (IL-4 stimulated, Eotaxin-3 release). The class given is cell-based. The conditions noted are these: Homo sapiens; for EC50: Hec50, 48 h; for Emax: 48 h. Summed up: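 Lithium-heparin blood preincubated 2 h at 37° C with 4-fold compound dilutions (0.5% DMSO, triplicates), then stimulated with 400 pM recombinant human IL-4 for 48 h. Eotaxin-3 in plasma supernatant measured by MSD immunoassay.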

In another assay the target is human STAT6 (Homo sapiens (Human), UniProt P42226). Put plainly: Surface plasmon resonance assay (Biacore 8K, binding to immobilized STAT6). The conditions noted are these: human STAT6 aa122-658, N-terminal His-tag, CM5 chip, 25° C.; geometric mean; read-out: STAT6 SPR Kd. In a few lines: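 Run at 25° C with His-tagged STAT6 aa122-658 (insect-cell expressed) amine-coupled to a CM5 chip, reference-subtracted, in PBS-P+ with 2% DMSO. Multi-cycle kinetics: 60 sec. contact, up to 300 sec. dissociation. Affinity fitted from late report-point binding isotherms, with Rmax both free and fixed to theoretical 1:1.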
Chain of human STAT6 (P42226 122-658): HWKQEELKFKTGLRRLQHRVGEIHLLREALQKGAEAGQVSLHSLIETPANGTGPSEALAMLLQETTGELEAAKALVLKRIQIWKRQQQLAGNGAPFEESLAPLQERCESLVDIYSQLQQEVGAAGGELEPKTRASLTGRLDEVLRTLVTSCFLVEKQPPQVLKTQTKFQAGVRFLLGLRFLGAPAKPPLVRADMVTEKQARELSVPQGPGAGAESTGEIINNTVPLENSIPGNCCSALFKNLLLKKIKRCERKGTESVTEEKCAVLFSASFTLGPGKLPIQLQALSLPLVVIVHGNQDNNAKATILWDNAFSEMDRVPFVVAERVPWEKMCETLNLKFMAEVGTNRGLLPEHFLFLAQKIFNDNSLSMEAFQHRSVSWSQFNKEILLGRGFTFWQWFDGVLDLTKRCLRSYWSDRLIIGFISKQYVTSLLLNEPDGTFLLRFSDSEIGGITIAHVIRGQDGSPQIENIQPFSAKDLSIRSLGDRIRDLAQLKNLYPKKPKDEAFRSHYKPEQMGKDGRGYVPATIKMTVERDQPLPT
In general terms: Surface plasmon resonance follows binding to a sensor surface in real time, without labels.

For the compound `CN(C)C(=O)c1ccc(C2CCN(Cc3cc4c(-c5ccc(N)cn5)ccnc4n3C)CC2)cc1` [Example 1k66, 4-(1-((4-(5-Aminopyridin-2-yl)-1-methyl-1H-pyrrolo[2,3-b]pyridin-2-yl)methyl)piperidin-4-yl)-N,N-dimethylbenzamide], the EC50 – broadly, the concentration at which the effect is half-maximal – in assay [1] was 6620 nM. Also, the Kd (in general, the equilibrium constant for the complex coming apart) at human STAT6 came out at 18.8 nM.

With `CNc1ccc(-c2ccnc3c2cc(CN2CCC(c4ccc(C(=O)N(C)C)cc4)CC2)n3C)nc1` [Example 1k69, N,N-Dimethyl-4-(1-((1-methyl-4-(5-(methylamino)pyridin-2-yl)-1H-pyrrolo[2,3-b]pyridin-2-yl)methyl)piperidin-4-yl)benzamide], the Emax (as a rule, the size of the effect at its maximum, as opposed to the concentration needed) in assay [1] turned out to be 72%. The Kd at human STAT6 came out at 53.5 nM.

`CNc1ccc(-c2ccnc3c2cc(CN2CCC(c4ccc(C(=O)N(C)C)cc4)CC2)n3C)nn1` [Example 1k71, N,N-Dimethyl-4-[1-[[1-methyl-4-[6-(methylamino)pyridazin-3-yl]pyrrolo[2,3-b]pyridin-2-yl]methyl]-4-piperidyl]benzamide]: in assay [1], the Emax was found to be 78.8%. Moreover, the Kd at human STAT6 came out at 22.6 nM.

Consider `Cc1nc(-c2ccnc3c2cc(CN2CCC(c4ccc(C(=O)N(C)C)cc4)CC2)n3C)ccc1N` [Example 1k73, 4-[1-[[4-(5-Amino-6-methyl-2-pyridyl)-1-methyl-pyrrolo[2,3-b]pyridin-2-yl]methyl]-4-piperidyl]-N,N-dimethyl-benzamide], for which the concentration giving a half-maximal response (EC50) in assay [1] turned out to be 7610 nM. For the same compound, on human STAT6, the Kd stood at 50.3 nM.

In turn, `CNc1ccc(-c2ccnc3c2cc(CN2CCC(c4ccc(C(=O)N(C)C)cc4F)CC2)n3C)nc1` [Example 1o23, 3-Fluoro-N,N-dimethyl-4-[1-[[1-methyl-4-[5-(methylamino)-2-pyridyl]pyrrolo[2,3-b]pyridin-2-yl]methyl]-4-piperidyl]benzamide] registered an EC50 in assay [1] of 2460 nM. Also, the Kd at human STAT6 stood at 30.6 nM.

Compound `CNc1ccc(-c2ccnc3c2cc([C@H](C)N2CCC(c4ccc(C(=O)N(C)C)cc4)CC2)n3C)nc1` [Example 1o24, (S)—N,N-dimethyl-4-(1-(1-(1-methyl-4-(5-(methylamino)pyridin-2-yl)-1H-pyrrolo[2,3-b]pyridin-2-yl)ethyl)piperidin-4-yl)benzamide] displayed an EC50 in assay [1] of 444 nM. The Kd at human STAT6 is 31.2 nM.

`CNc1ccc(-c2ccnc3c2cc(CN2CC[C@@H](c4ccc(C(=O)N(C)C)cc4)C[C@H]2C)n3C)nc1` [Example 1o26, N,N-dimethyl-4-((2R,4R)-2-methyl-1-((1-methyl-4-(5-(methylamino)-pyridin-2-yl)-1H-pyrrolo[2,3-b]pyridin-2-yl)methyl)piperidin-4-yl)benzamide] gave an EC50 in assay [1] of 458 nM. The Kd on human STAT6 came out at 32.4 nM.

In turn, `CNc1ccc(-c2ccnc3c2cc(CN2CCN(c4ccc(C(=O)N(C)C)cc4)CC2)n3C)nn1` [Example 1p1, N,N-Dimethyl-4-[4-[[1-methyl-4-[6-(methylamino)pyridazin-3-yl]pyrrolo[2,3-b]pyridin-2-yl]methyl]piperazin-1-yl]benzamide] had an EC50 in assay [1] of 76000 nM. Moreover, the Kd on human STAT6 was determined as 329 nM.

`CNc1ccc(-c2ccnc3c2cc(CN2CCC(c4ccc(C(=O)N(C)C)cc4C)CC2)n3C)nn1` [Example 1p2, N,N,3-Trimethyl-4-[1-[[1-methyl-4-[6-(methylamino)pyridazin-3-yl]pyrrolo[2,3-b]pyridin-2-yl]methyl]-4-piperidyl]benzamide] returned an EC50 in assay [1] of 14100 nM. For the same compound, the Kd on human STAT6 was 70.1 nM.

In assay [1], `CNc1ccc(-c2ccnc3c2cc(CN2CCN(c4ccc(C(=O)N(C)C)cc4C)CC2)n3C)nn1` [Example 1p3, N,N,3-Trimethyl-4-[4-[[1-methyl-4-[6-(methylamino)pyridazin-3-yl]pyrrolo[2,3-b]pyridin-2-yl]methyl]piperazin-1-yl]benzamide] returned an EC50 of 232 nM. Further, at human STAT6, the Kd was determined as 19.2 nM.

In assay [1], `CNc1ccc(-c2ccnc3c2cc(CN2CC=C(c4ccc(C(=O)N(C)C)cc4C)CC2)n3C)nn1` [Example 1p6, N,N,3-Trimethyl-4-[1-[[1-methyl-4-[6-(methylamino)pyridazin-3-yl]pyrrolo[2,3-b]pyridin-2-yl]methyl]-3,6-dihydro-2H-pyridin-4-yl]benzamide] had an EC50 of 723 nM. For the same compound, the Kd on human STAT6 turned out to be 22 nM.

`CC(=O)Nc1ccc(-c2ccnc3c2cc(CN2CC[C@@H](c4ccc(C(=O)N(C)C)cc4)[C@@H](F)C2)n3C)cc1` [Example 1r6, N,N-dimethyl-4-[(3R,4S)-1-[[4-(4-acetamidophenyl)-1-methyl-pyrrolo[2,3-b]pyridin-2-yl]methyl]-3-fluoro-4-piperidyl]benzamide]: the Emax in assay [1] was 51.2%. In addition, the Kd on human STAT6 came out at 39.9 nM.

In turn, `CNc1ccc(-c2ccnc3c2cc(CN2CCC(c4ccc(C(=O)N(C)C)cc4)CC2=O)n3C)cn1` (centres unmarked) [Example 1s2, N,N-Dimethyl-4-[1-[[1-methyl-4-[6-(methylamino)-3-pyridyl]pyrrolo[2,3-b]pyridin-2-yl]methyl]-2-oxo-4-piperidyl]benzamide] came in with an Emax in assay [1] of 54.4%. Also, on human STAT6, the Kd amounted to 35.8 nM.

The compound `CNc1ccc(-c2ccnc3c2cc(CN2CC=C(c4ccc(C(=O)N(C)C)cc4C)CC2)n3C)cn1` [Example 1s8, N,N,3-Trimethyl-4-[1-[[1-methyl-4-[6-(methylamino)-3-pyridyl]pyrrolo[2,3-b]pyridin-2-yl]methyl]-3,6-dihydro-2H-pyridin-4-yl]benzamide] registered an EC50 in assay [1] of 958 nM. Besides, the Kd at human STAT6 is 33.8 nM.

On to `CNc1ccc(-c2ccnc3c2cc(CN2CC=C(c4c(C)cc(C(=O)N(C)C)cc4C)CC2)n3C)cn1` [Example 1s10, N,N,3,5-Tetramethyl-4-[1-[[1-methyl-4-[6-(methylamino)-3-pyridyl]pyrrolo[2,3-b]pyridin-2-yl]methyl]-3,6-dihydro-2H-pyridin-4-yl]benzamide], for which, in assay [1], the EC50 came out at 205 nM. Moreover, the Kd at human STAT6 came to 40.4 nM.

`CNc1ccc(-c2ccnc3c2cc(CN2CC=C(c4ncc(C(=O)N(C)C)cc4C)CC2)n3C)cn1` [Example 1s12, N,N,5-Trimethyl-6-[1-[[1-methyl-4-[6-(methylamino)-3-pyridyl]pyrrolo[2,3-b]pyridin-2-yl]methyl]-3,6-dihydro-2H-pyridin-4-yl]pyridine-3-carboxamide] displayed an EC50 in assay [1] of 4960 nM. Besides, on human STAT6, the Kd worked out at 32.1 nM.

As for `CNc1ccc(-c2ccnc3c2cc(CN2CCC(c4c(C)cc(C(=O)N(C)C)cc4C)CC2)n3C)cn1` [Example 1s13, N,N,3,5-Tetramethyl-4-[1-[[1-methyl-4-[6-(methylamino)-3-pyridyl]pyrrolo[2,3-b]pyridin-2-yl]methyl]-4-piperidyl]benzamide], the EC50 in assay [1] is 480 nM. Moreover, at human STAT6, the Kd worked out at 28.8 nM.

In assay [1], `CNc1ccc(-c2ccnc3c2cc(CN2CCN(c4ccc(C(=O)N(C)C)cc4C)CC2)n3C)cn1` [Example 1s14, N,N,3-Trimethyl-4-[4-[[1-methyl-4-[6-(methylamino)-3-pyridyl]pyrrolo[2,3-b]pyridin-2-yl]methyl]piperazin-1-yl]benzamide] gave an Emax of 37.2%. At human STAT6, the dissociation constant (Kd) is 28.9 nM.

Compound `CNc1ccc(-c2ccnc3c2cc(CN2CCC(c4ccc(C(=O)N(C)C)cc4F)CC2)n3C)cn1` [Example 1s30, 3-Fluoro-N,N-dimethyl-4-(1-((1-methyl-4-(6-(methylamino)pyridin-3-yl)-1H-pyrrolo[2,3-b]pyridin-2-yl)methyl)piperidin-4-yl)benzamide] gave an EC50 in assay [1] of 2580 nM. The dissociation constant (Kd) at human STAT6 was 22.1 nM.

The values above are taken from US20250340551A1, “SMALL MOLECULE MODULATORS OF STAT6” (Gilead Sciences, Inc., priority 2024, published 2025).
